{
  "source": "patent US10947245B2",
  "about": "“Crystal form A of 2-butoxy-7-(4-(pyrrolidin-1-ylmethyl)benzyl)-5H-pyrrolo[3,2-d]pyrimidin-4-amine for inhibiting toll-like receptor activity” (priority 2016, dated 2021)",
  "key": {"[1]": {"experiment": "High temperature stability test (60° C., open container)", "format": "physicochemical", "conditions": "for Appearance / Content / Total content of impurities: open container", "description": "The crystal form A of the compound of formula I was tested in the accelerated test under high temperature conditions for stability in accordance with Guidelines for the Stability Test of Pharmaceutical Ingredients and Pharmaceutical Preparations (Chinese Pharmacopoeia 2010 Appendix XIXC).\nThe crystal form A prepared in Example 1 was placed in an open-clean container at 60° C. The samples were taken for test on day 10, day 20 and day 30, respectively."}, "[2]": {"experiment": "High humidity stability test (40° C./75% humidity, open)", "format": "physicochemical", "conditions": "for Appearance / Content / Total content of impurities: 40° C./75% humidity (open)", "description": "The crystal form A of the compound of formula I was tested in the accelerated test under high humidity conditions for stability in accordance with Guidelines for the Stability Test of Pharmaceutical Ingredients and Pharmaceutical Preparations (Chinese Pharmacopoeia 2010 Appendix XIXC).\nThe crystal form A prepared in Example 1 was subjected to an accelerated test in a constant temperature and humidity vessel under the conditions of 40° C./75% humidity (open). The samples were taken for test on day 30, day 60 and day 90, respectively."}, "[3]": {"system": "human peripheral blood mononuclear cells (PBMC)", "experiment": "Peripheral blood mononuclear cell test: cytokine stimulation (CBA, flow cytometer)", "format": "cell-based", "conditions": "for TNF-α MEC / IFN-α MEC: human PBMC, 24 h; for IFN-α MEC: lowest drug concentration stimulating the production of 30 pg/mL of IFN-α", "description": "The purpose of this example is to determine the expression level of cytokines 24 h after stimulation to human peripheral blood mononuclear cells (PBMC) with the compound of formula I.\nThe cell supernatant was assayed without dilution and the levels of IFN-α were directly determined. The compound of formula I was firstly formulated into 20 mM DMSO stock solution during the test and was gradient diluted with cell medium in 10-fold with the total number of 11 diluting points. The compounds in 9 diluting points (the highest concentration was 200 μmol/L) were added into 96-well plate with 50 μL in each well. Fresh human peripheral blood mononuclear cells were inoculated, with 150 μL in each well containing 450,000 cells. The cell culture plate was incubated in an incubator at 37° C., 5% CO2 for 24 h. After incubation, the culture plate was centrifuged at 1200 rpm for 5 min and the supernatant was collected and stored at −20° C. for determination. The determination of cytokine was performed using Cytometric Bead Array (CBA) of BD-Pharmingen on flow cytometer. Using the above determining method, the lowest drug concentration stimulating the production of 30 pg/mL of IFN-α was designated as the MEC value in the cytokine stimulating test."}, "Toll-like receptor 8": {"biological_target": "T1, Toll-like receptor 8 (Homo sapiens, UniProt Q9NR97)", "T1 construct": "host or cells: HEK-blue hTLR8 cell (HEK293-derived reporter line)", "T1 sequence (Q9NR97 27-1041)": "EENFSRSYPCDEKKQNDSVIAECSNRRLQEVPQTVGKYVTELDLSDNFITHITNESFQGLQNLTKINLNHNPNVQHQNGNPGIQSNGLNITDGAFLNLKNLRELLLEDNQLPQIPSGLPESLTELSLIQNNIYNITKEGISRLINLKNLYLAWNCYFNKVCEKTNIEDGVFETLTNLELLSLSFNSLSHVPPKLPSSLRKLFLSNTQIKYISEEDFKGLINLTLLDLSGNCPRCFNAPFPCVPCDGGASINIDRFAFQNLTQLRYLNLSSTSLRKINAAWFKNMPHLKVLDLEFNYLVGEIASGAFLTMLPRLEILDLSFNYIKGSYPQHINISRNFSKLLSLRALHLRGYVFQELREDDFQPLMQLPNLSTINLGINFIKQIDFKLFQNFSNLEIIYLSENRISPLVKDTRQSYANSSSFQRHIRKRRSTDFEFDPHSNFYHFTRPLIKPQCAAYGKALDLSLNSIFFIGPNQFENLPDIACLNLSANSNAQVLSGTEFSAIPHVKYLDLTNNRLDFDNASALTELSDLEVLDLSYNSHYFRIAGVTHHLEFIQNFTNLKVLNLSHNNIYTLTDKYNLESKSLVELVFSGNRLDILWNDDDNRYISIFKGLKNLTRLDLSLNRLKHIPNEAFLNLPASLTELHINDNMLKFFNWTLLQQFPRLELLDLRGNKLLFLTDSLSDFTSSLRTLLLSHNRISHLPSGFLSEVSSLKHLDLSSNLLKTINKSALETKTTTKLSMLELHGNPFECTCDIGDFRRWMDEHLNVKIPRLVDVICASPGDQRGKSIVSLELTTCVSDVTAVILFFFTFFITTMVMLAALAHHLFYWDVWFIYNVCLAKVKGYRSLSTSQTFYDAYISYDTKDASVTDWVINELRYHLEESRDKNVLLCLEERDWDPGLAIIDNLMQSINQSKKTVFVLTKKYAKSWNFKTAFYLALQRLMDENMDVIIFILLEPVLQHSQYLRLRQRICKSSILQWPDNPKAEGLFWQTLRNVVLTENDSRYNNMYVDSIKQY", "experiment": "Toll-like receptor 8 in vitro receptor binding activity screen (HEK-blue hTLR8 cell, Quanti-Blue alkaline phosphatase readout)", "format": "cell-based", "conditions": "versus GS-9620", "description": "(§1) Efficacy example 1: Toll-like receptor 7 and Toll-like receptor 8 in vitro receptor binding activity screen\n(§2) HEK-blue hTLR7 cell and HEK-blue hTLR8 cell (available from InvivoGen)\n(§3) The compounds were gradient diluted with DMSO in 3-fold using liquid work station POD starting at a concentration of 10 mmol/L and 10 points were diluted (2nd column to 11th column, and each point was duplicated). At 12th column, 1 μL of 5 mg/mL positive compound R848 was added as positive control; and at 1st column, 1 μL of DMSO was added as negative control. Each well contained 1 μL of DMSO.\n(§4) 2. The cells in culture flask were collected and the cell density was diluted to 250,000 cells/mL.\n(§5) 3. 200 μL (50,000 cells/well) of cell suspension was added into prepared compound plate and the final concentration of DMSO in each well was 0.5%.\n(§6) 4. The culture plates containing cells and the compounds were incubated in CO2 incubator for 24 h at 37° C., 5% CO2.\n(§7) 5. After 24 h incubation, 20 μL of supernatant was removed from each well to a 96-well transparent assay plate. To each well of the assay plate was added 180 μL of Quanti-Blue reagent and the plate was incubated in an incubator at 37° C., 5% CO2 for 1 h.\n(§8) 6. After 1 h, the content of alkaline phosphatase in 20 μL of supernatant was determined using Microplate Reader OD650.\n(§9) 7. EC50 of each compound was obtained with Prism software."}, "Toll-like receptor 7": {"biological_target": "T2, Toll-like receptor 7 (Homo sapiens, UniProt Q9NYK1)", "T2 construct": "host or cells: HEK-blue hTLR7 cell (HEK293-derived reporter line)", "T2 sequence (Q9NYK1 27-1049)": "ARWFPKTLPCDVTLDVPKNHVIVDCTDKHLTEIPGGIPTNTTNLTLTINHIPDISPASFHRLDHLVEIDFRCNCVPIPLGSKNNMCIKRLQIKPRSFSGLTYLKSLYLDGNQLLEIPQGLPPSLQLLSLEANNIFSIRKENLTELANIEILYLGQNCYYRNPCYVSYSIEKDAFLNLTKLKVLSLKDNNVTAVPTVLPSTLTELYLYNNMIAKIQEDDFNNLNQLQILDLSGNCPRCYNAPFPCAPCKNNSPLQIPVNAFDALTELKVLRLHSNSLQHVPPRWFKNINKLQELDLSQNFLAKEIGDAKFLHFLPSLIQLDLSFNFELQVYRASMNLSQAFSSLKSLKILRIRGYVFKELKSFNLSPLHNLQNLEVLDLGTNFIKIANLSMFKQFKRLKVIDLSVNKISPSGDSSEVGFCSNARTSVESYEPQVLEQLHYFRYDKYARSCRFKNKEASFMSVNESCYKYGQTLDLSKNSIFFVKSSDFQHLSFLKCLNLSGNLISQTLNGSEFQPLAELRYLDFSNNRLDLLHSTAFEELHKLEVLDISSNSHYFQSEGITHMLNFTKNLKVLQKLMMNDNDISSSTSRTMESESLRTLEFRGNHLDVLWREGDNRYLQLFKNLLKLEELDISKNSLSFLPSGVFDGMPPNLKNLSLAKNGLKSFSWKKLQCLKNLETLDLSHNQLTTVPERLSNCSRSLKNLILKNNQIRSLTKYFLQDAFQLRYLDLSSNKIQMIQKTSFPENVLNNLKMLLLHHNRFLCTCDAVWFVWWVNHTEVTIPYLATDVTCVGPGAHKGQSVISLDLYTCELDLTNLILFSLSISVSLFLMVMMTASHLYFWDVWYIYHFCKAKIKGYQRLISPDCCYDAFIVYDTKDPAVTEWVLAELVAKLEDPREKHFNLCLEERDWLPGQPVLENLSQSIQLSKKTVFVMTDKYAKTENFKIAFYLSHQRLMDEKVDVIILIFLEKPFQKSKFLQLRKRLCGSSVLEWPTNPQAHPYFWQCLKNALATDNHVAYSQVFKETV", "experiment": "Toll-like receptor 7 in vitro receptor binding activity screen (HEK-blue hTLR7 cell, Quanti-Blue alkaline phosphatase readout)", "format": "cell-based", "conditions": "versus GS-9620", "description": "as §1, §2, §3, §4, §5, §6, §7, §8, §9"}},
  "data": [
    {"compound": "CCCCOc1nc(N)c2[nH]cc(Cc3ccc(CN4CCCC4)cc3)c2n1", "note": "[crystal form A, 2-butoxy-7-(4-(pyrrolidin-1-ylmethyl)benzyl)-5H-pyrrolo[3,2-d]pyrimidin-4-amine]", "values": [
      {"measurement": "Appearance", "setting": "[1]; day 0 (initial)", "value": "White powder"},
      {"measurement": "Content", "setting": "[1]; day 0 (initial)", "value": 99.8, "unit": "%"},
      {"measurement": "Total content of impurities", "setting": "[1]; day 0 (initial)", "value": 0.92, "unit": "%"},
      {"measurement": "Appearance", "setting": "[1]; day 10", "value": "Light yellow powder"},
      {"measurement": "Content", "setting": "[1]; day 10", "value": 98.5, "unit": "%"},
      {"measurement": "Total content of impurities", "setting": "[1]; day 10", "value": 1.10, "unit": "%"},
      {"measurement": "Appearance", "setting": "[1]; day 20", "value": "Light yellow powder"},
      {"measurement": "Content", "setting": "[1]; day 20", "value": 98.1, "unit": "%"},
      {"measurement": "Total content of impurities", "setting": "[1]; day 20", "value": 1.18, "unit": "%"},
      {"measurement": "Appearance", "setting": "[1]; day 30", "value": "Light yellow powder"},
      {"measurement": "Content", "setting": "[1]; day 30", "value": 98.8, "unit": "%"},
      {"measurement": "Total content of impurities", "setting": "[1]; day 30", "value": 1.29, "unit": "%"},
      {"measurement": "stability in high temperature conditions (in words)", "setting": "[1]; up to 30 days", "value": "good stability in high temperature conditions"},
      {"measurement": "Appearance", "setting": "[2]; day 0 (initial)", "value": "White powder"},
      {"measurement": "Content", "setting": "[2]; day 0 (initial)", "value": 100.2, "unit": "%"},
      {"measurement": "Total content of impurities", "setting": "[2]; day 0 (initial)", "value": 0.92, "unit": "%"},
      {"measurement": "Appearance", "setting": "[2]; day 30", "value": "White powder"},
      {"measurement": "Content", "setting": "[2]; day 30", "value": 99.9, "unit": "%"},
      {"measurement": "Total content of impurities", "setting": "[2]; day 30", "value": 0.92, "unit": "%"},
      {"measurement": "Appearance", "setting": "[2]; day 60", "value": "White powder"},
      {"measurement": "Content", "setting": "[2]; day 60", "value": 99.9, "unit": "%"},
      {"measurement": "Total content of impurities", "setting": "[2]; day 60", "value": 0.65, "unit": "%"},
      {"measurement": "Appearance", "setting": "[2]; day 90", "value": "White powder"},
      {"measurement": "Content", "setting": "[2]; day 90", "value": 100.2, "unit": "%"},
      {"measurement": "Total content of impurities", "setting": "[2]; day 90", "value": 0.93, "unit": "%"},
      {"measurement": "stability in high humidity conditions (in words)", "setting": "[2]; 40° C./75% humidity, up to 90 days", "value": "good stability in high humidity conditions"}
    ]},
    {"compound": "CCCCOc1nc(N)c2[nH]cc(Cc3ccc(CN4CCCC4)cc3)c2n1", "note": "[Compound of formula I, 2-butoxy-7-(4-(pyrrolidin-1-ylmethyl)benzyl)-5H-pyrrolo[3,2-d]pyrimidin-4-amine]", "values": [
      {"measurement": "TNF-α MEC", "setting": "[3]", "value": 500, "unit": "nM"},
      {"measurement": "IFN-α MEC", "setting": "[3]", "value": 5, "unit": "nM"},
      {"measurement": "TNF-α inducing activity compared with control GS-9620 (in words)", "setting": "[3]; versus GS-9620", "value": "comparable TNF-α inducing activity"},
      {"measurement": "in vitro IFN-α inducing activity of PBMCs compared with control GS-9620 (in words)", "setting": "[3]; versus GS-9620", "value": "better in vitro IFN-α inducing activity of PBMCs"},
      {"measurement": "in vitro receptor binding activity to Toll-like receptor 8 compared with control GS-9620 (in words)", "setting": "Toll-like receptor 8", "value": "lower in vitro receptor binding activity to Toll-like receptor 8 than the control"},
      {"measurement": "in vitro receptor binding activity to Toll-like receptor 7 compared with control GS-9620 (in words)", "setting": "Toll-like receptor 7", "value": "higher in vitro receptor binding activity to Toll-like receptor 7 than the control"}
    ]},
    {"compound": "CCCCOc1nc(N)c2c(n1)N(Cc1cccc(CN3CCCC3)c1)CC(=O)N2", "note": "[GS-9620, reference compound]", "values": [
      {"measurement": "TNF-α MEC", "setting": "[3]", "value": 500, "unit": "nM"},
      {"measurement": "IFN-α MEC", "setting": "[3]", "value": 50, "unit": "nM"}
    ]}
  ]
}
